The text below walks through data of patent US10081615B2, “Sulfamate derivative compounds for use in treating or alleviating pain” (Bio-Pharm Solutions Co., Ltd., priority 2013, dated 2018).

Like-named read-outs stand apart in the source and are kept apart here.

Broadly, the melting point is the temperature of the solid-liquid transition.

One data set has as its system CFA-induced pain model. In words: Antiallodynic activity on Complete Freund's Adjuvant (CFA)-induced inflammatory pain model (von Frey). The class given is in vivo, Sprague-Dawley rats. Conditions: ip, 0.5 h, read-out: CFA model: effect (%) compared to control; for response vs control in vivo at 25 mg/kg: 25 mg/kg administered. The method, then: Male, Sprague-Dawley rats (200-220 g, Nara Bio, Korea) were habituated for 1 week before surgery and allowed free access to food and water throughout the experimentation. Room temperature and humidity were maintained at 24±2° C. and 50±10%, respectively.
CFA-induced inflammatory pain was induced by the procedure of Nagakura et al. (2003) and Gregory P. et al. (2010) with minor modifications. CFA (sigma, USA) was injected into the left plantar with a 100 ul volume under gaseous anesthesia with isoflurane and NO2 with a 4:4 flow ratio. Sham controls were injected with 100 ul of saline and preparation of the vehicle controls were identical to the group treated with compound, except for administration of vehicles without compound in the vehicle control group.
Tactile sensitivity (mechanical allodynia) was evaluated using von Frey monofilaments before and after treatment, and the animals were included in the study only if the withdrawal threshold value was less than 4 g. One week after surgery, CFA-infused animals (n=4˜6), sham-operated animals (n=12), and vehicle-operated animals (n=17) were tested for tactile sensitivity with von Frey monofilaments, with 3 trials for each animal. All animals were placed in a stainless steel mesh chamber and habituated for 30 min in the test cage. The tactile sensitivity for the ipsilateral hind paw was measured using the up-and-down method (Dixon, 1980) with seven von Frey monofilaments (0.4, 1, 2, 4, 6, 8, and 15 g) in 3 trials. The tactile sensitivity test was followed by Dixon's method (Dixon, 1980). The 50% paw withdrawal threshold for each paw was calculated using the following formula: [Xth] log=[vFr] log+ky where [vFr] is the force of the last von Frey used, k=0.2249 which is the average interval (in log units) between the von Frey monofilaments, and y is a value that depends upon the pattern of the withdrawal responses (Dixon, 1980).
The antiallodynic effect of the compound of Example was evaluated at the doses of 10, 30 and 60 mg/kg (n=4˜6), and were intraperitoneally administered in a volume of 5 ul/g by bodyweight in a vehicle of 30% (v/v) PEG. […]
The relative values compared to the sham (% control) were calculated and are shown in Table 4, which show an antiallodynic effect of the compound of examples in the CFA-induced pain model in rats.

In a further data set the test system is SNL model. The data set is described as follows: Antiallodynic activity in the Chung model (SNL, Spinal Nerve Ligation; von Frey). The class given is in vivo, Sprague-Dawley rats. The method, then:
Male Sprague-Dawley rats (200-220 g, Orient Bio, Korea) were habituated for 1 week before the experiment and allowed free access to food and water throughout the experimentation. Room temperature and humidity were maintained at 24±2° C. and 50±10%, respectively. The neuropathic surgery (SNL, Spinal Nerve Ligation) model was done as described in Kim and Chung (1992). Briefly, an animal was put under gaseous anesthesia with isoflurane and NO2 with a 4:4 flow ratio. The left lumbar spinal nerves L5 and L6 were isolated and tightly ligated with 4-0 silk thread. The wound was treated with a gentamicin antibiotic solution (4 mg/kg, 4 ul/g by bodyweight), and the wound muscle was closed with Catgut® chrome 4/0 thread and the skin was closed with Dafilon 4/0 thread. Sham controls were prepared in the same manner with the spinal nerves were exposed, but no ligated L5 and L6 nerves. Preparation of the vehicle controls were identical to the group treated with compound, except for administration of vehicles without compound in the vehicle control group.
Tactile sensitivity (mechanical allodynia) was evaluated using von Frey monofilaments before and after treatment and animals the animals were included in the study only if the withdrawal threshold value was less than 4 g. One week after surgery, SNL-operated animals (n=4˜6), sham-operated animals (n=4˜10) and vehicle-operated animals (n=4˜13) were tested for tactile sensitivity with von Frey monofilaments with 3 trials in each animal. All animals were placed in a stainless steel mesh chamber and habituated for 30 min in the test cage. The tactile sensitivity for ipsilateral hind paw was measured using the up-and-down method (Dixon, 1980) with seven von Frey monofilaments (0.4, 1, 2, 4, 6, 8, and 15 g) in 3 trials. The tactile sensitivity test was followed by Dixon's method (Dixon, 1980). The 50% paw withdrawal threshold for each paw was calculated using the following formula: [Xth] log=[vFr] log+ky where [vFr] is the force of the last von Frey used, k=0.2249 which is the average interval (in log units) between the von Frey monofilaments, and y is a value that depends upon the pattern of withdrawal responses (Dixon, 1980).
All animals were fasted for 18 h before the administration of the compounds. The antiallodynic effect of the compounds were evaluated at the various doses (n=5˜6), orally administered in a volume of 5 ul/g by bodyweight in a vehicle of 30% (v/v) PEG 400 (Example 7) or 20% (v/v) Tween 80 (Examples 5 and 6) or saline. […]
The relative values compared to the sham group (% control) were calculated and are shown in Table 5, which show an antiallodynic effect of the test compounds in the SNL model in rats.

The mark [1] stands for this setting: rat, intraperitoneal, 50 mg/kg administered.
Where [2] appears, read: rat, oral, 3.5 mg/kg administered, time not given, read-out: SNL model: effect (%) compared to control.

The compound `CC1(C)Oc2ccccc2[C@@H](COS([NH-])(=O)=O)O1.[Na+]` (hydrate or solvate) [Example 59, Sodium (S)-(((2,2-dimethyl-4H-benzo[d][1,3]dioxin-4-yl)methoxy)sulfonyl)amide Trihydrate] showed a melting point of 51.2 to 52.2 °C.

Take `CCC1(CC)Oc2ccccc2C(COS(N)(=O)=O)O1` (racemic) [Example 6, (2,2-diethyl-4H-benzo[d][1,3]dioxin-4-yl))methyl sulfamate]: the response vs control in vivo at 50 mg/kg with CFA-induced pain model (setting [1]) is 64.6%.

Consider `CCC1(CC)Oc2ccccc2C(CCOS(N)(=O)=O)O1` (racemic) [Example 14, 2-(2,2-diethyl-4H-benzo[d][1.3]dioxin-4-yl)ethyl sulfamate], for which, in the data set on SNL model (setting [2]), the response vs control in vivo at 3.5 mg/kg stood at 37.9%.

`NS(=O)(=O)OCCC1OC2(CCCCC2)Oc2ccccc21` (racemic) [Example 16, 2-(4H-spiro[benzo[d][1.3]dioxine-2,1′-cyclohexan]-4-yl)ethyl sulfamate]: the response vs control in vivo at 50 mg/kg in the data set on CFA-induced pain model (setting [1]) amounted to 38.9%.

As for `CC1(C)Oc2ccccc2CC(COS(N)(=O)=O)O1` (racemic) [Example 17, (2,2-dimethyl-4,5-dihydrobenzo[d][1,3]dioxepin-4-yl)methyl sulfamate], in the data set with SNL model (rat, oral, 3.5 mg/kg administered, 0.5 h, read-out: SNL model: effect (%) compared to control), the response vs control in vivo at 3.5 mg/kg turned out to be 16.8%.

On to `CCC1(CC)Oc2ccccc2CC(COS(N)(=O)=O)O1` (racemic) [Example 18, (2,2-diethyl-4,5-dihydrobenzo[d][1,3]dioxepin-4-yl)methyl sulfamate], for which the response vs control in vivo at 50 mg/kg with CFA-induced pain model (setting [1]) was determined as 91.7%.

With `NS(=O)(=O)OCC1Cc2ccccc2OC2(CCCC2)O1` (racemic) [Example 19, (4,5-dihydrospiro[benzo[d][1,3]dioxepine-2,1′-cyclopentan]-4-yl)methyl sulfamate], the response vs control in vivo at 3.5 mg/kg in the data set on SNL model (setting [2]) came out at 33.3%.

Turning to `NS(=O)(=O)OCC1Cc2ccccc2OC2(CCCCC2)O1` (racemic) [Example 20, (4,5-dihydrospiro[benzo[d][1,3]dioxepine-2,1′-cyclohexan]-4-yl)methyl sulfamate], the response vs control in vivo at 50 mg/kg with CFA-induced pain model (setting [1]) amounted to 69%.

Regarding `CC1(C)Oc2cc(Cl)ccc2C(COS(N)(=O)=O)O1` (racemic) [Example 45, (7-chloro-2,2-dimethyl-4H-benzo[d][1,3]dioxin-4-yl)methyl sulfamate], the response vs control in vivo at 50 mg/kg in the data set with CFA-induced pain model (setting [1]) was found to be 33.1%.

For the compound `CC1(C)Oc2ccc(Cl)cc2C(COS(N)(=O)=O)O1` (racemic) [Example 48, (6-chloro-2,2-dimethyl-4H-benzo[d][1,3]dioxin-4-yl)methyl sulfamate], the response vs control in vivo at 50 mg/kg in the data set with CFA-induced pain model (setting [1]) was 21.7%.

For `CCC1(CC)Oc2ccc(Cl)cc2C(COS(N)(=O)=O)O1` (racemic) [Example 51, (6-chloro-2,2-diethyl-4H-benzo[d][1,3]dioxin-4-yl)methyl sulfamate], the response vs control in vivo at 50 mg/kg in the data set with CFA-induced pain model (setting [1]) stood at 23.3%.

Take `NS(=O)(=O)OCC1OC2(CCCCC2)Oc2ccc(Cl)cc21` (racemic) [Example 53, (6-chloro-4H-spiro[benzo[d][1,3]dioxine-2,1′-cyclohexan]-4-yl)methyl sulfamate]: the response vs control in vivo at 25 mg/kg in the data set with CFA-induced pain model (rat, intraperitoneal) was determined as 57.3%.

For `CC1(C)Oc2ccc(F)cc2C(COS(N)(=O)=O)O1` (racemic) [Example 54, (6-fluoro-2,2-dimethyl-4H-benzo[d][1,3]dioxin-4-yl)methyl sulfamate], in the data set on CFA-induced pain model (rat, intraperitoneal), the response vs control in vivo at 25 mg/kg was found to be 82.9%.

`COc1ccc2c(c1)C(COS(N)(=O)=O)OC(C)(C)O2` (racemic) [Example 57, (6-methoxy-2,2-dimethyl-4H-benzo[d][1,3]dioxin-4-yl)methyl sulfamate]: the response vs control in vivo at 25 mg/kg in the data set on CFA-induced pain model (rat, intraperitoneal) came out at 39.1%.

In the case of `NS(=O)(=O)OC[C@H]1OC2(CCCC2)Oc2ccccc21` [Example 8, ((S)-4H-spiro[benzo[d][1,d]dioxine-2,1′-cyclopentan]-4-yl)methyl sulfamate], in the data set on CFA-induced pain model (setting [1]), the response vs control in vivo at 50 mg/kg is 74.8%.

As for `NS(=O)(=O)OC[C@@H]1OC2(CCCCC2)Oc2ccccc21` [Example 10, ((R)-4H-spiro[benzo[d][1,3]dioxine-2,1′-cylcohexan]-4-yl)methyl sulfamate], the response vs control in vivo at 25 mg/kg in the data set on CFA-induced pain model (rat, intraperitoneal) is 37.2%.

In the case of `CC1(C)Oc2c(Cl)cccc2[C@@H](COS(N)(=O)=O)O1` [Example 26, ((S)-8-chloro-2,2-dimethyl-4H-benzo[d][1,3]dioxin-4-yl)methyl sulfamate], in the data set with CFA-induced pain model (setting [1]), the response vs control in vivo at 50 mg/kg was found to be 34.2%.

For the compound `CCC1(CC)Oc2c(Cl)cccc2[C@@H](COS(N)(=O)=O)O1` [Example 29, ((S)-8-chloro-2,2-diethyl-4H-benzo[d][1,3]dioxin-4-yl)methyl sulfamate], the response vs control in vivo at 25 mg/kg with CFA-induced pain model (rat, intraperitoneal) worked out at 43.9%.

For the compound `NS(=O)(=O)OC[C@H]1OC2(CCCC2)Oc2c(Cl)cccc21` [Example 32, ((S)-8-chloro-4H-spiro[benzo[d][1,3]dioxine-2,1′-cyclopentan]-4-yl)methyl sulfamate], the response vs control in vivo at 50 mg/kg in the data set with CFA-induced pain model (setting [1]) turned out to be 51.9%.

As for `NS(=O)(=O)OC[C@H]1OC2(CCCCC2)Oc2c(Cl)cccc21` [Example 35, ((S)-8-chloro-4H-spiro[benzo[d][1,3]dioxine-2,1′-cylcohexan]-4-yl)methyl sulfamate], in the data set with CFA-induced pain model (setting [1]), the response vs control in vivo at 50 mg/kg was 15.5%.

For the compound `CC1(C)Oc2ccc(Cl)cc2[C@H](COS(N)(=O)=O)O1` [Example 46, ((R)-6-chloro-2,2-dimethyl-4H-benzo[d][1,3]dioxin-4-yl)methyl sulfamate], the response vs control in vivo at 50 mg/kg in the data set on CFA-induced pain model (setting [1]) was 36.4%.

In the case of `CC1(C)Oc2ccc(Cl)cc2[C@@H](COS(N)(=O)=O)O1` [Example 47, ((S)-6-chloro-2,2-dimethyl-4H-benzo[d][1,3]dioxin-4-yl)methyl sulfamate], the response vs control in vivo at 50 mg/kg in the data set on CFA-induced pain model (setting [1]) turned out to be 100%.

For `CC1(C)Oc2ccc(Cl)cc2[C@H](COS(N)(=O)=O)O1` [Example 61, Sodium (R)-(((6-chloro-2,2-dimethyl-4H-benzo[d][1,3]dioxin-4-yl)methoxy)sulfonyl)amide], the response vs control in vivo at 3.5 mg/kg with SNL model (Rattus norvegicus, po, read-out: SNL model: effect (%) compared to control, rat, oral, 3.5 mg/kg administered, time not given) came to 20.9%.

For the compound `CC1(C)Oc2ccccc2C(CCOS(N)(=O)=O)O1` (centres unmarked) [Example 68, Sodium ((2-(2,2-dimethyl-4H-benzo[d][1,3]dioxin-4-yl)ethoxy)sulfonyl)amide], the response vs control in vivo at 3.5 mg/kg in the data set on SNL model (Rattus norvegicus, po, 0.5 h, read-out: SNL model: effect (%) compared to control, rat, oral, 3.5 mg/kg administered, 0.5 h) amounted to 25%.

For `CC1(C)Oc2ccccc2C(COS(N)(=O)=O)O1` (centres unmarked) [Example 72, Potassium (((2,2-dimethyl-4H-benzo[d][1,3]dioxin-4-yl)methoxy)sulfonyl)amide], the response vs control in vivo at 50 mg/kg in the data set on CFA-induced pain model (Rattus norvegicus) stood at 67.1%.

For the compound `CC1(C)Oc2ccccc2[C@@H](COS([NH-])(=O)=O)O1.[Li+]` [Example 73, Lithium (S)-(((2,2-dimethyl-4H-benzo[d][1,3]dioxin-4-yl)methoxy)sulfonyl)amide], the “SNL model: effect (%) compared to control” value with SNL model (rat, oral, 3.5 mg/kg administered, 0.5 h) is listed as “(13.5%, 0.5 h)”.
